ChEMBL document CHEMBL1158790, “Pseudopyronines A and B, alpha-pyrones produced by a marine Pseudomonas sp. F92S91, and evidence for the conversion of 4-hydroxy-alpha-pyrone to 3-furanone” (J Nat Prod, 2005)
Active and inactive are the calls of the source. No cut-off for these calls is given here.

System: Saccharomyces cerevisiae
Experiment: Antifungal activity against Saccharomyces cerevisiae
Format: functional, organism-based

## CCCCCCCC1=CC(=O)C(O)(CCCCCC)O1 (stereo unspecified)
  Activity: inactive
